Tests used:
Type in all cases: in vivo
maize [1] = test: Field trials in Brazilian maize: crop response (phytotoxicity) after foliar spray; conditions: 125 g a.i./ha, two foliar applications, Brazil field trials, assessed 14 - 28 days after second application, 5 trials
Method: (§1) In 2017/2018 five field trials in maize were conducted in order to study the effect of compounds of formula (I) and standard azole-type fungicides regarding disease control against leaf diseases and crop safety.
(§2) The trials were done under practical field conditions in Brazil in the Safrinha season with the commercially available maize varieties P30F53 Pioneer, P30F53 RR - Roundup Ready® Pioneer, P30F53YHV Pioneer, DKB 390 Dekalb® and DKB 390 IPRO3 Dekalb®.
(§3) These trials were conducted in the following federal states in Brazil: Goias, Mato Grosso, Minas Gerais, Parana and Sao Paulo.
(§4) The tested compounds / reference products, their respective formulation type and rates of application [g a.i./ha] Tab.1: Products, formulations and rates.
(§5) The products were sprayed twice in sequential, foliar applications at growth stages BBCH EC 39 - 55 and BBCH EC 51 - 69 with a spray interval of about 2 weeks with backpack or bicycle applicators.
(§6) The water quantity for the applications was 150 l / ha.
(§7) About 14 - 28 days after the second application crop response and disease control were assessed visually by rating the damaged leaves or plant parts.

Cercospora zeae maydis = test: Field trials in Brazilian maize: disease control (Abbott efficacy) after foliar spray; conditions: 125 g a.i./ha, two foliar applications, Brazil, 2 trials; untreated control 40 % disease severity
Method: as §1, §2, §3, §4, §5, §6, §7
(§8) The efficacy against the pathogens listed in table 2 was calculated according to Abbott's formula: Efficacy (%) = (X−Y)/X × 100, [formula] wherein X is the disease severity in the control and Y is the disease severity in the treatment, and is shown in table 2 [%].

Helminthosporium spp. = test: as above; conditions: 125 g a.i./ha, two foliar applications, Brazil, 3 trials; untreated control 22 % disease severity
Method: as §1, §2, §3, §4, §5, §6, §7, §8

Phaeosphaeria maydis = test: as above; conditions: 125 g a.i./ha, two foliar applications, Brazil, 3 trials; untreated control 44 % disease severity
Method: as §1, §2, §3, §4, §5, §6, §7, §8

Puccinia polysora = test: as above; conditions: 125 g a.i./ha, two foliar applications, Brazil, 1 trial; untreated control 73 % disease severity
Method: as §1, §2, §3, §4, §5, §6, §7, §8

Puccinia sorghi = test: as above; conditions: 125 g a.i./ha, two foliar applications, Brazil, 2 trials; untreated control 20 % disease severity
Method: as §1, §2, §3, §4, §5, §6, §7, §8

maize [2] = test: Field trials in Brazilian maize: yield relative to untreated control; conditions: 125 g a.i./ha, two foliar applications, Brazil, 3 trials; untreated control (43 dt/ha) = 100%
Method: as §1, §2, §3, §4, §5, §6
The yield of the untreated control (43 dt/ha) is set to 100% and the yield values for the other treatments are given in percent thereof. Tab. 2: Impact of foliar applications of tested compounds on crop response, disease control and yield.

maize [3] = test: Field trials in North American maize: crop response (phytotoxicity) after foliar spray; conditions: for PTX (%): one foliar application BBCH EC 63 - 65, Canada/USA, 3 trials
[4] = test system: Cochliobolus heterostrophus; test: Field trials in North American maize: disease control (Abbott efficacy) after foliar spray; conditions: one foliar application, 1 trial, untreated control 12 % disease severity
Method: (§9) In 2018 eight field trials in maize were conducted in order to study the effect of compounds of formula (I) and standard azole-type fungicides regarding disease control against leaf diseases.
(§10) The trials were done under practical field conditions in Canada and the USA with the commercially available maize varieties DKC 62-08 Dekalb®, DKC 35-88 RIB RR2 BT Dekalb®, P7958 AM RR2 LL BT (Marc Hutlet Seeds Ltd.), NK1120-3122 RR+GLU+ECB+CRW (Syngenta), P9608AM LL RR2 CRW ECB (Pioneer) and Golden Bantam (conventional variety available from various companies worldwide).
(§11) These trials were conducted in the following provinces in Canada and federal states in North America: Ontario (Canada) and Georgia, Indiana, Iowa, Michigan, Ohio (all USA).
(§12) The tested compounds / reference products, their respective formulation type and rates of application [g a.i./ha] Tab.3: Products, formulations and rates.
(§13) In table 4 details of the formulations of (1-02) used in the different trials are listed. Tab.4: Formulations of (1-02) and a tank mixed surfactant used in different trials.
(§14) The products were sprayed with one foliar application at growth stage BBCH EC 63 - 65 with a high clearance sprayer or a backpack applicator.
(§15) The water quantity for the applications varied from 150 to 300 l/ha.
(§16) About 23 - 35 days after application the disease control was assessed visually by rating the damaged leaves or plant parts.
(§17) The efficacy against the pathogens listed in table 5 was calculated according to Abbott's formula: Efficacy (%) = (X−Y)/X × 100, [formula] wherein X is the disease severity in the control and Y is the disease severity in the treatment, and is shown in table 5 [%].

Kabatiella zeae = test: as above; conditions: one foliar application, 1 trial, untreated control 17 % disease severity
Method: as §9, §10, §11, §12, §13, §14, §15, §16, §17

Setosphaeria turcica = test: as above; conditions: one foliar application, 2 trials, untreated control 18 % disease severity
Method: as §9, §10, §11, §12, §13, §14, §15, §16, §17

maize [5] = test: Field trials in North American maize: yield relative to untreated control; conditions: for Yield (% of Control): one foliar application, 2 trials, untreated control (112 dt/ha) = 100%
Method: as §9, §10, §11, §12, §13, §14, §15
The yield of the untreated control (112 dt/ha) is set to 100% and the yield values for the other treatments are given in percent thereof Tab. 5: Impact of foliar applications of tested compounds on disease control.

[6] = Canada/USA field trials, 60 -125 g a.i./ha

| SMILES | PTX (%) (maize [1]) | Cercospora zeae maydis (% efficacy) (Cercospora zeae maydis) | Helminthosporium spp. (% efficacy) (Helminthosporium spp.) | Phaeosphaeria maydis (% efficacy) (Phaeosphaeria maydis) | Puccinia polysora (% efficacy) (Puccinia polysora) | Puccinia sorghi (% efficacy) (Puccinia sorghi) | Yield (% of Control) (maize [2]) | PTX (%) (maize [3]; 60 g a.i./ha (100 EC or 250 SC)) | PTX (%) (maize [3]; 125 g a.i./ha (100 EC or 250 SC)) | crop safety (conclusion in words) (maize [3]; [6]) | Cochliobolus heterostrophus (% efficacy) ([4]; 60 g a.i./ha) | Cochliobolus heterostrophus (% efficacy) ([4]; 125 g a.i./ha) | Kabatiella zeae (% efficacy) (Kabatiella zeae; 60 g a.i./ha) | Kabatiella zeae (% efficacy) (Kabatiella zeae; 125 g a.i./ha) | Setosphaeria turcica (% efficacy) (Setosphaeria turcica; 60 g a.i./ha) | Setosphaeria turcica (% efficacy) (Setosphaeria turcica; 125 g a.i./ha) | Yield (% of Control) (maize [5]; 60 g a.i./ha) | Yield (% of Control) (maize [5]; 125 g a.i./ha) | impact on yield (conclusion in words) (maize [5]; [6]) |
| --- | --- | --- | --- | --- | --- | --- | --- | --- | --- | --- | --- | --- | --- | --- | --- | --- | --- | --- | --- |
| CC(O)(Cn1cncn1)c1ccc(Oc2ccc(Br)cc2)nc1C(F)(F)F (centres unmarked) [(I-02), 2-[6-(4-bromophenoxy)-2-(trifluoromethyl)-3-pyridyl]-1-(1,2,4-triazol-1-yl)propan-2-ol] | 0% | 70% | 63% | 64% | 74% | 68% | 112 % of Control | 0% | 0% | completely safe on the crop | 91% | 97% | 89% | 95% | 57% | 61% | 120 % of Control | 115 % of Control | positive impact on yield |
| CC(O)(Cn1cncn1)c1ccc(Oc2ccc(Cl)cc2)nc1C(F)(F)F (centres unmarked) [(I-01), 2-[6-(4-chlorophenoxy)-2-(trifluoromethyl)-3-pyridyl]-1-(1,2,4-triazol-1-yl)propan-2-ol] | 0% | 61% | 65% | 68% | 76% | 71% | 123 % of Control | – | – | – | – | – | – | – | – | – | – | – | – |
